Measurements taken from US12466832B2, “Monohydrate and crystalline forms of 6-[(3S,4S)-4-methyl-1-(pyrimidin-2-ylmethyl)pyrrolidin-3-yl]-3-tetrahydropyran-4-yl-7H-imidazo[1,5-a]pyrazin-8-one” (Cardurion Pharmaceuticals, Inc., priority 2018, dated 2025).
≈ marks a conversion by molar mass, not a printed value.

How the values were obtained:
Type in all cases: physicochemical
[1] = Solubility assessment of MH1 in solvents (HPLC of liquors, XRPD of isolated solids); settings: for solubility at 24 h: organic solvent or mixture, thermodynamic from solid
Protocol: Procedure: Four solvents were chosen based on the competitive slurry experiments that favored MH1 as well as for diversity. Combinations of those solvents with water (aw=0.35) were also utilized to verify which hydrate is favored. Mixtures of the solvents with heptane (1:1) were used to check for crystal form with a good antisolvent.
MH1 (22×104 mg) was suspended in various solvents (11×0.5 ml) and stirred at either 5 or 50° C. for 24 hours at 750 rpm. The solids were isolated by filtration and centrifugation and the liquors were analysed by HPLC to determine their solubility (relative to a standard made up). The solids were also investigated by XRPD. This procedure was also followed for an additional five solvent systems comprising different ratios of THF:heptane and IPA:heptane at either 5 or 50° C. The isolated solids were investigated by XRPD, HPLC and ^1HNMR.

[2] = pH profiling solubility experiments; settings: 24 hours
Protocol: Procedure: pH profiling solubility experiments were performed on MH1 and MH2. Solubility was determined in singlicate by suspending sufficient compound in relevant media (1.00 ml) to give a maximum final concentration as shown in the Table 17.
The suspensions were equilibrated at 25° C., on a Heidolph plate shaker set to 750 rpm for 24 hours. Samples were pH adjusted as required using 0.5M/1M HCl and 0.2M NaOH to within 0.1 of the desired pH unit (where possible). The pHs of the saturated solutions were measured (where applicable) and an appearance was recorded. The suspensions were filtered through a glass fibre C filter (particle retention […]) and diluted appropriately. Quantitation was by HPLC with reference to a standard solution of approximately 0.15 mg/ml in DMSO. Different volumes of the standard, diluted and undiluted sample solutions were injected. The solubility was calculated using the peak areas determined by integration of the peak found at the same retention time as the principal peak in the standard injection.

[3] = Solubility repeat at pH 1.2 (reverse addition); settings: pH 1.2 buffered media, pH 1.2, simulated gastric fluid, thermodynamic from solid, pH maintained at 1.2, reverse addition
Protocol: Procedure: pH 1.2 buffered media (0.4 ml) was added to two separate 7 ml vials. For each compound, material was added in portions to the pH 1.2 media. After each addition of compound, the vial was vortex mixed and the pH and appearance was recorded. The samples were adjusted to pH 1.2 with 1M HCl to within 0.05 of the desired pH unit. This was repeated until no further material was available (˜400 mg for each form, which would give a maximum concentration of around 1000 mg/ml if no adjustment was required).

[4] = Water activity experiments (slurries, XRPD)
Protocol: MH1 (30.0 mg) was weighed into HPLC vials and placed in a vacuum oven to dry over the weekend. All samples were then placed in a desiccator prior to use to ensure dryness. Solvent ([…]) was added and slurries agitated at either 25° C. or 5° C. Further MH1 was added to any solutions formed to return to a slurry. Ethyl acetate and methyl acetate were both dried prior to use. After four days, the samples were analysed by XRPD with minimum exposure to ambient conditions.
Selected samples were also characterised after standing at ambient for 2 days by XRPD, 1H NMR, TGA and DSC.

[5] = Ethanol:Heptane 1:1, 5° C., 24 hours
[6] = IPrOAc:0.5% water, 50° C., 24 hours
[7] = IPrOAc:Heptane 1:1, 5° C., 24 hours
[8] = IPrOAc:Heptane 1:1, 50° C., 24 hours
[9] = THF:0.8% water, 5° C., 24 hours
[10] = THF:Heptane 1:1, 5° C., 24 hours
[11] = THF:Heptane 1:1, 50° C., 24 hours
[12] = 0.5% water/EtOAc, Aw = 0.3, four days
[13] = 0.8% water/MeOAc, Aw = 0.4, four days
[14] = 1% water/EtOAc, Aw = 0.5, four days
[15] = 1.5% water/EtOAc, Aw = 0.6, four days
[16] = 2% water/EtOAc, Aw = 0.7, four days
[17] = 2.7% water/EtOAc, Aw = 0.8, four days
[18] = 7.5% water/MeOAc, Aw = 0.9, four days
[19] = EtOAc, Sieves, slurry four days

C[C@@H]1CN(Cc2ncccn2)C[C@H]1c1cn2c(C3CCOCC3)ncc2c(=O)[nH]1 [MH1, 6-[(3S,4S)-4-methyl-1-(pyrimidin-2-ylmethyl)pyrrolidin-3-yl]-3-tetrahydropyran-4-yl-7H-imidazo[1,5-a]pyrazin-8-one]
Solubility ([1]; Ethanol, 5° C., 24 hours): >200 mg/mL
Solubility ([1]; Ethanol, 50° C., 24 hours): >200 mg/mL
Solubility ([1]; Ethanol:4.2% water, 5° C., 24 hours): >200 mg/mL
XRPD (isolated solid) [1, 5]: MH1 + AH
XRPD (isolated solid) ([1]; Heptane, 5° C., 24 hours): MH1
XRPD (isolated solid) ([1]; Heptane, 50° C., 24 hours): MH1 + AH
XRPD (isolated solid) ([1]; IPA, 5° C., 24 hours): MH1 + AH
Solubility ([1]; IPA, 50° C., 24 hours): >200 mg/mL
XRPD (isolated solid) ([1]; IPA:Heptane 1:1, 5° C.): MH1
XRPD (isolated solid) ([1]; IPA:Heptane 1:2, 5° C.): MH1
XRPD (isolated solid) ([1]; IPA:Heptane 1:2, 50° C.): MH1
XRPD (isolated solid) ([1]; IPA:Heptane 1:3, 5° C.): MH1
XRPD (isolated solid) ([1]; IPA:Heptane 1:3, 50° C.): MH1
solubility at 24 h ([1]; IPrOAc with 0.5% water, IPrOAc:0.5% water, 5° C., 24 hours): 3.8 mg/mL
XRPD (isolated solid) ([1]; IPrOAc, 5° C., 24 hours): MH1
XRPD (isolated solid) ([1]; IPrOAc, 50° C., 24 hours): MH1 + AH
XRPD (isolated solid) ([1]; IPrOAc:0.5% water, 5° C., 24 hours): MH2
XRPD (isolated solid) [1, 6]: MH1
XRPD (isolated solid) [1, 7]: MH1
XRPD (isolated solid) [1, 8]: MH1
XRPD (isolated solid) ([1]; THF, 5° C., 24 hours): MH2 + New peaks
Solubility ([1]; THF, 50° C., 24 hours): >200 mg/mL
XRPD (isolated solid) [1, 9]: MH2
XRPD (isolated solid) [1, 10]: MH1
XRPD (isolated solid) [1, 11]: MH1
XRPD (isolated solid) ([1]; THF:Heptane 1:2, 5° C.): MH1
XRPD (isolated solid) ([1]; THF:Heptane 1:2, 50° C.): MH1
XRPD (isolated solid) ([1]; THF:Heptane 2:1, 5° C.): MH2
XRPD (isolated solid) ([1]; THF:Heptane 2:1, 50° C.): MH1
solubility at 24 h ([1]; ethanol with 4.2% water, Ethanol:4.2% water, 5° C., 24 hours): > 200 mg/mL
solubility at 24 h ([1]; Ethanol, 5° C., 24 hours): > 200 mg/mL
solubility at 24 h ([1]; Ethanol, 50° C., 24 hours): > 200 mg/mL
solubility at 24 h ([1]; Ethanol:4.2% water, 50° C., 24 hours): > 200 mg/mL
solubility at 24 h [1, 5]: 170 mg/mL
solubility at 24 h ([1]; Ethanol:Heptane 1:1, 50° C., 24 hours): > 200 mg/mL
solubility at 24 h ([1]; IPA, 5° C., 24 hours): 130 mg/mL
solubility at 24 h ([1]; IPA, 50° C., 24 hours): > 200 mg/mL
solubility at 24 h ([1]; IPA:Heptane 1:1, 5° C.): 40 mg/mL
solubility at 24 h ([1]; IPA:Heptane 1:1, 50° C.): > 200 mg/mL
solubility at 24 h ([1]; IPA:Heptane 1:2, 5° C.): 14 mg/mL
solubility at 24 h ([1]; IPA:Heptane 1:2, 50° C.): 19 mg/mL
solubility at 24 h ([1]; IPA:Heptane 1:3, 5° C.): 8 mg/mL
solubility at 24 h ([1]; IPA:Heptane 1:3, 50° C.): 10 mg/mL
solubility at 24 h ([1]; IPrOAc, 5° C., 24 hours): 11 mg/mL
solubility at 24 h ([1]; IPrOAc, 50° C., 24 hours): 6.3 mg/mL
solubility at 24 h [1, 6]: 5.6 mg/mL
solubility at 24 h [1, 7]: 1.9 mg/mL
solubility at 24 h [1, 8]: 2.1 mg/mL
solubility at 24 h ([1]; THF, 5° C., 24 hours): 79 mg/mL
solubility at 24 h ([1]; THF, 50° C., 24 hours): > 200 mg/mL
solubility at 24 h [1, 9]: 76 mg/mL
solubility at 24 h ([1]; THF:0.8% water, 50° C., 24 hours): > 200 mg/mL
solubility at 24 h [1, 10]: 6.3 mg/mL
solubility at 24 h [1, 11]: 11 mg/mL
solubility at 24 h ([1]; THF:Heptane 1:2, 5° C.): 0.33 mg/mL
solubility at 24 h ([1]; THF:Heptane 1:2, 50° C.): 0.62 mg/mL
solubility at 24 h ([1]; THF:Heptane 2:1, 5° C.): 17 mg/mL
solubility at 24 h ([1]; THF:Heptane 2:1, 50° C.): 21 mg/mL
Solubility ([2]; media pH 1.2, 25° C., pH not maintained, final pH 5.02 (MH1-A), 6.63 (MH2-A)): >275 mg/mL
Solubility ([2]; media pH 4.0, 25° C., listed as MH1-B): >106 mg/mL
Solubility ([2]; media pH 6.5, 25° C., listed as MH1-C): >164 mg/mL
Solubility ([2]; media pH 7.5, 25° C., listed as MH1-D): 62 mg/mL (≈ 157 mM)
Solubility [3]: > 153 mg/mL
Results for 5° C. (form by XRPD) [4, 12]: MH1
Results for 25° C. (form by XRPD) [4, 12]: MH1
Results for 5° C. (form by XRPD) [4, 13]: MH1
Results for 25° C. (form by XRPD) [4, 13]: MH1
Results for 5° C. (form by XRPD) [4, 14]: New Form
Results for 25° C. (form by XRPD) [4, 14]: MH1
Results for 5° C. (form by XRPD) [4, 15]: New Form
Results for 25° C. (form by XRPD) [4, 15]: MH1
Results for 5° C. (form by XRPD) [4, 16]: New Form
Results for 25° C. (form by XRPD) [4, 16]: New Form
Results for 5° C. (form by XRPD) [4, 17]: New Form
Results for 25° C. (form by XRPD) [4, 17]: New Form
Results for 5° C. (form by XRPD) [4, 18]: New Form
Results for 25° C. (form by XRPD) [4, 18]: New Form
Results for 5° C. (form by XRPD) [4, 19]: MH1
Results for 25° C. (form by XRPD) [4, 19]: MH1
